Data reported in patent publication US5508413A, “(+)-5-isopropyl 3-methyl 2-cyano-6 methyl-4-(3-nitrophenyl)-1, 4-dihydropyridine-3, 5-dicarboxylate” (priority 1991, dated 1996).
Values after ≈ are worked out from the molar mass of the structure shown.

How the values were obtained:
[1] = Solubility Test (in water at ambient temperature); format: physicochemical; settings: for solubility: in water, ambient temperature
Experimental: [B] Solubility Test Test Method Solubility of Test Compound A and Nilvadipine in water was measured at ambient temperature.

[2] = system: Anesthetized Dogs; test: Measurement of Arterial Blood Pressure in Anesthetized Dogs; format: in vivo, Mongrel dogs; settings: for blood pressure / ratio of blood pressure change as compared to the normal blood pressure: anesthetized dogs
Experimental: [A] Measurement of Arterial Blood Pressure in Anesthetized Dogs
Mongrel dogs weighing 11.8 to 19.0 kg were used. The dogs were anesthetized by intraperitoneal injection of pentobarbital sodium (35 mg/kg). The blood pressure was measured with a pressure transducer in the left femoral artery. The values of blood pressure were recorded on a polygraph. The right femoral vein was cannulated and the cumulative dose (0.01, 0.032, 0.1, 0.32, 1, 3.2, 10, 32 and 100 μg/kg) of the solution of Test Compounds dissolved in a mixture of polyethylene glycol, ethanol and water was intravenously injected in a volume of 0.2 ml/kg.
The values of blood pressure were shown in the following table with an expression of mm/Hg.
note: The values of the parentheses mean the ratio of blood pressure
change (%) in each dose as compared to the normal blood pressure.

[3] = background statement; cited from earlier work
[4] = orally administered; background statement; cited from earlier work
[5] = cumulative i.v. dose 0.32 μg/kg
[6] = as compared to its optically inactive racemate, Nilvadipine

For `COC(=O)C1=C(C#N)NC(C)=C(C(=O)OC(C)C)C1c1cccc([N+](=O)[O-])c1` (single isomer, unassigned; (+)) [Test Compound A, (+)-5-isopropyl 3-methyl 2-cyano-6-methyl-4-(3-nitrophenyl)-1,4-dihydropyridine-3,5-dicarboxylate], the solubility [1] was 4.7 µg/mL (≈ 12.2 µM), the blood pressure [2, 5] was 117 ± 6 mm/Hg and the “ratio of blood pressure change as compared to the normal blood pressure” value (“ratio of blood pressure change” for short) [2, 5] was -2 ± 1%. The blood pressure ([2]; cumulative i.v. dose 1 μg/kg) was 114 ± 6 mm/Hg, the “ratio of blood pressure change” value ([2]; cumulative i.v. dose 1 μg/kg) was -5 ± 1% and the blood pressure ([2]; cumulative i.v. dose 3.2 μg/kg) was 101 ± 7 mm/Hg. For the same molecule, the “ratio of blood pressure change” value ([2]; cumulative i.v. dose 3.2 μg/kg) was -16 ± 2%, the blood pressure ([2]; cumulative i.v. dose 10 μg/kg) was 74 ± 6 mm/Hg and the “ratio of blood pressure change” value ([2]; cumulative i.v. dose 10 μg/kg) was -39 ± 2%. For the same molecule, the blood pressure ([2]; cumulative i.v. dose 32 μg/kg) was 64 ± 7 mm/Hg, the “ratio of blood pressure change” value ([2]; cumulative i.v. dose 32 μg/kg) was -47 ± 4% and the blood pressure ([2]; cumulative i.v. dose 100 μg/kg) was 58 ± 6 mm/Hg. The “ratio of blood pressure change” value ([2]; cumulative i.v. dose 100 μg/kg) was -52 ± 3%.

With `COC(=O)C1=C(C#N)NC(C)=C(C(=O)OC(C)C)C1c1cccc([N+](=O)[O-])c1` (single isomer, unassigned; (+)) [(+)-5-isopropyl 3-methyl 2-cyano-6-methyl-4-(3-nitrophenyl)-1,4-dihydropyridine-3,5-dicarboxylate] the “solubility (in words)” value [1, 6] was “higher solubility” and the “hypotensive and vasodilating activities (in words)” value [2, 6] was “much stronger and more lasting hypotensive and vasodilating activities”.

In the case of `COC(=O)C1=C(C#N)NC(C)=C(C(=O)OC(C)C)C1c1cccc([N+](=O)[O-])c1` (racemic) [Nilvadipine, (±)-5-isopropyl 3-methyl 2-cyano-6-methyl-4-(3-nitrophenyl)-1,4-dihydropyridine-3,5-dicarboxylate], the solubility [1] is reported as 0.6 µg/mL (≈ 1.56 µM), the blood pressure [2, 5] is reported as 104 ± 6 mm/Hg and the “ratio of blood pressure change” value [2, 5] is reported as “+6 ± 1%”. The blood pressure ([2]; cumulative i.v. dose 1 μg/kg) was 103 ± 5 mm/Hg, the “ratio of blood pressure change” value ([2]; cumulative i.v. dose 1 μg/kg) was “+5 ± 1%” and the blood pressure ([2]; cumulative i.v. dose 3.2 μg/kg) was 100 ± 4 mm/Hg. The “ratio of blood pressure change” value ([2]; cumulative i.v. dose 3.2 μg/kg) was -3 ± 2%, the blood pressure ([2]; cumulative i.v. dose 10 μg/kg) was 90 ± 3 mm/Hg and the “ratio of blood pressure change” value ([2]; cumulative i.v. dose 10 μg/kg) was -7 ± 5%. For the same molecule, the blood pressure ([2]; cumulative i.v. dose 32 μg/kg) was 83 ± 5 mm/Hg, the “ratio of blood pressure change” value ([2]; cumulative i.v. dose 32 μg/kg) was -15 ± 6% and the blood pressure ([2]; cumulative i.v. dose 100 μg/kg) was 65 ± 6 mm/Hg. The “ratio of blood pressure change” value ([2]; cumulative i.v. dose 100 μg/kg) was -34 ± 6%, the “solubility in water (in words)” value [3] was “only slightly soluble in water” and the “absorbability of said drug into a body (in words)” value [4] was “not so good”.
